Tests used:
[1] = tested on: rat; settings: Sub-acute repeat dose toxicity, sprague dawley, Oral, Gavage/Intubation, dose end: 28 day, group: systemic
[2] = tested on: dog; settings: Sub-acute repeat dose toxicity; beagle; Oral; Gavage/Intubation; dose end: 30 day; group: systemic; systemic / in life observation / clinical signs / emesis + systemic / clinical chemistry / [other] / [other] + systemic / clinical chemistry…
[3] = tested on: rat; settings: Sub-acute repeat dose toxicity; sprague dawley; Oral; Gavage/Intubation; dose end: 10 day; group: systemic; systemic / clinical chemistry / sorbitol dehydrogenase / sorbitol dehydrogenase
[4] = tested on: dog; settings: Sub-acute repeat dose toxicity, beagle, Oral, Gavage/Intubation, dose end: 10 day, group: systemic
[5] = tested on: rabbit; settings: Prenatal developmental toxicity study, dutch, Oral, Gavage/Intubation, dose end: 27 GD
[6] = tested on: mouse; settings: Subchronic oral toxicity in rodents, cd1, Feed, dose end: 13 week
[7] = tested on: rat; settings: Subchronic oral toxicity in rodents, fischer, Feed, dose end: 13 week, group: systemic, systemic / clinical chemistry / cholesterol / cholesterol + systemic / organ weight / kidney / relative to body weight + systemic / organ …
[8] = tested on: rat; settings: Combined chronic toxicity/carcinogenicity; fischer; Oral; Feed; dose end: 25 month; group: systemic; systemic / clinical chemistry / creatinine / creatinine + systemic / clinical chemistry / gamma glutamyl transpeptides (gtp) / gamma …
[9] = tested on: rat; settings: Subchronic oral toxicity in rodents, sprague dawley, Feed, dose end: 90 day, group: systemic, systemic / organ weight / liver / absolute + systemic / organ weight / liver / relative to body weight + systemic / organ weight / thyroid …
[10] = tested on: dog; settings: Chronic toxicity; beagle; Oral; Feed; dose end: 52 week; group: systemic; systemic / clinical chemistry / alkaline phosphatase (alp/alk) / alkaline phosphatase (alp/alk) + systemic / organ weight / liver / absolute…
[11] = tested on: rat; settings: Combined chronic toxicity/carcinogenicity, sprague dawley, Oral, Feed, dose end: 26 month, group: systemic
[12] = tested on: dog; settings: Chronic toxicity, beagle, Oral, Capsule, dose end: 52 week, group: systemic
[13] = tested on: rat; settings: Subchronic oral toxicity in rodents, other, Feed, dose end: 90 day, group: systemic
[14] = tested on: mouse; settings: Carcinogenicity, cd1, Oral, Feed, dose end: 78 week, group: systemic
[15] = tested on: dog; settings: Subchronic oral toxicity in nonrodent, beagle, Capsule, dose end: 96 day, group: systemic
[16] = tested on: rat; settings: Subchronic oral toxicity in rodents, other, Feed, dose end: 90 day, group: systemic; remark: listed apart in the source
[17] = tested on: mouse; settings: Subchronic oral toxicity in rodents, cd1, Feed, dose end: 90 day, group: systemic
[18] = tested on: rat; settings: Combined chronic toxicity/carcinogenicity, fischer, Oral, Feed, dose end: 2 year
[19] = tested on: mouse; settings: Combined chronic toxicity/carcinogenicity, cd1, Oral, Feed, dose end: 24 month
[20] = tested on: rabbit; settings: Prenatal developmental toxicity study, Dutch, Oral, Gavage/Intubation, dose end: 18 GD
[21] = tested on: rat; settings: Multigenerational reproductive toxicity study, sprague dawley, Oral, Feed, dose end: 2 generation
[22] = tested on: rat; settings: Combined chronic toxicity/carcinogenicity, fischer, Oral, Feed, dose end: 106 week
[23] = systemic / clinical chemistry / cholesterol / cholesterol + systemic / clinical chemistry / sorbitol dehydrogenase / sorbitol dehydrogenase…
[24] = systemic / organ weight / liver / absolute
[25] = systemic / in life observation / clinical signs / arrhythmia
[26] = systemic / in life observation / clinical signs / arrhythmia + systemic / in life observation / clinical signs / convulsions
[27] = group: developmental, systemic / in life observation / body weight / fetal weight
[28] = group: maternal, reproductive / reproductive performance / aborted / aborted + systemic / in life observation / body weight / body weight gain + systemic / …
[29] = group: cholinesterase, cholinesterase / cholinesterase / cholinesterase / brain cholinesterase (che)
[30] = group: systemic, systemic / organ weight / liver / absolute + systemic / organ weight / liver / relative to body weight + systemic / organ weight / liver / …
[31] = systemic / pathology microscopic / kidney / nephropathy + systemic / pathology microscopic / liver / degeneration
[32] = systemic / pathology microscopic / kidney / nephropathy + systemic / pathology microscopic / liver / degeneration + systemic / pathology …
[33] = systemic / in life observation / body weight / body weight gain + systemic / in life observation / food consumption / food efficiency
[34] = systemic / in life observation / clinical signs / abdominogenital staining + systemic / in life observation / clinical signs / urinary …
[35] = systemic / in life observation / clinical signs / abdominogenital staining + systemic / in life observation / water consumption / water …
[36] = systemic / hematology / erythrocyte (rbc) count differential / erythrocyte (rbc) + systemic / hematology / hematocrit (hct) / hematocrit (…
[37] = systemic / pathology microscopic / liver / vacuolization
[38] = systemic / in life observation / body weight / body weight gain + systemic / in life observation / food consumption / food efficiency + …
[39] = systemic / organ weight / spleen / relative to body weight
[40] = systemic / pathology microscopic / liver / vacuolization + systemic / hematology / erythrocyte (rbc) count differential / erythrocyte (rbc…
[41] = group: cholinesterase, cholinesterase / cholinesterase / cholinesterase / brain cholinesterase (che) + cholinesterase / cholinesterase / cholinesterase / …
[42] = group: systemic, systemic / in life observation / body weight / body weight + systemic / in life observation / body weight / body weight gain + systemic / …
[43] = group: systemic, systemic / in life observation / clinical signs / urine staining - perineum
[44] = group: systemic, systemic / in life observation / clinical signs / vaginal discharge + systemic / in life observation / clinical signs / urine staining - …
[45] = group: cholinesterase, cholinesterase / cholinesterase / cholinesterase / erythrocyte cholinesterase (che) + cholinesterase / cholinesterase / cholinesterase / …
[46] = group: developmental, developmental / developmental malformation / bone / delayed ossification + systemic / in life observation / body weight / fetal weight
[47] = group: maternal, reproductive / reproductive performance / resorptions / resorptions + reproductive / reproductive performance / aborted / aborted + systemic…
[48] = group: cholinesterase, cholinesterase / cholinesterase / cholinesterase / brain cholinesterase (che) + cholinesterase / cholinesterase / cholinesterase / plasma …
[49] = group: offspring, systemic / in life observation / body weight / offspring (pup) weight + systemic / pathology microscopic / kidney / dilatation
[50] = group: parental, systemic / pathology gross / lung / discolored + systemic / pathology microscopic / lung / hyperplasia + systemic / pathology microscopic / …
[51] = group: reproductive, reproductive / offspring survival early / birth index / birth index
[52] = group: cholinesterase, cholinesterase / cholinesterase / cholinesterase / plasma cholinesterase (che) + cholinesterase / cholinesterase / cholinesterase / brain …
[53] = group: systemic, systemic / hematology / hematocrit (hct) / hematocrit (hct) + systemic / hematology / mean corpuscular (cell) volume (mcv) / mean …

Cc1nc(C)nc(N2C[C@@H](C)N(c3ccnc([C@@H](C)O)n3)[C@@H](C)C2)n1
LOAEL [1, 23]: > 20 mg/kg/day
NOAEL [1, 23]: ≥ 20 mg/kg/day
LEL [1, 24]: 2 mg/kg/day
NEL [1, 24]: < 2 mg/kg/day
LEL [2]: 6 mg/kg/day
LOAEL [2]: > 6 mg/kg/day
NEL [2]: < 6 mg/kg/day
NOAEL [2]: ≥ 6 mg/kg/day
LEL [3]: 1 mg/kg/day
LOAEL [3]: > 10 mg/kg/day
NEL [3]: < 1 mg/kg/day
NOAEL [3]: ≥ 10 mg/kg/day
LEL [4, 25]: 1 mg/kg/day
NEL [4, 25]: < 1 mg/kg/day
LOAEL [4, 26]: > 6 mg/kg/day
NOAEL [4, 26]: ≥ 6 mg/kg/day

CCCCOCN(C(=O)CCl)c1c(CC)cccc1CC [Butachlor]
LEL [5, 27]: 150 mg/kg/day
LOAEL [5, 27]: 150 mg/kg/day
NEL [5, 27]: 50 mg/kg/day
NOAEL [5, 27]: 50 mg/kg/day
LEL [5, 28]: 150 mg/kg/day
LOAEL [5, 28]: 150 mg/kg/day
NEL [5, 28]: 50 mg/kg/day
NOAEL [5, 28]: 50 mg/kg/day
LEL [6, 29]: 150 mg/kg/day
LOAEL [6, 29]: > 900 mg/kg/day
NEL [6, 29]: < 150 mg/kg/day
NOAEL [6, 29]: ≥ 900 mg/kg/day
LEL [6, 30]: 150 mg/kg/day
LOAEL [6, 30]: 150 mg/kg/day
NEL [6, 30]: < 150 mg/kg/day
NOAEL [6, 30]: < 150 mg/kg/day
LEL [7]: 58.7 mg/kg/day
LOAEL [7]: 58.7 mg/kg/day
NEL [7]: 17.5 mg/kg/day
NOAEL [7]: 17.5 mg/kg/day
LEL [8]: 37.1 mg/kg/day
LOAEL [8]: 37.1 mg/kg/day
NEL [8]: 3.65 mg/kg/day
NOAEL [8]: 3.65 mg/kg/day
LEL [9]: 50 mg/kg/day
LOAEL [9]: 50 mg/kg/day
NEL [9]: < 50 mg/kg/day
NOAEL [9]: < 50 mg/kg/day
LEL [10]: 25 mg/kg/day
LOAEL [10]: 25 mg/kg/day
NEL [10]: 5 mg/kg/day
NOAEL [10]: 5 mg/kg/day
LOAEL [11, 31]: 4.5 mg/kg/day
NOAEL [11, 31]: < 4.5 mg/kg/day
LEL [11, 32]: 4.5 mg/kg/day
NEL [11, 32]: < 4.5 mg/kg/day

CCOC(=O)COc1cc(-n2ncc(C(F)(F)F)c(C)c2=O)c(F)cc1Cl [Flufenpyr-ethyl]
LOAEL ([12]; systemic / in life observation / body weight / body weight gain): 1000 mg/kg/day
LEL [12, 33]: 200 mg/kg/day
NEL [12, 33]: 50 mg/kg/day
NOAEL [12, 33]: 200 mg/kg/day
LOAEL [13, 34]: 595 mg/kg/day
NOAEL [13, 34]: 55 mg/kg/day
LEL [13, 35]: 55 mg/kg/day
NEL [13, 35]: < 55 mg/kg/day
LOAEL [14, 36]: 402 mg/kg/day
NOAEL [14, 36]: 39.9 mg/kg/day
LEL [14, 37]: 397 mg/kg/day
NEL [14, 37]: 43.5 mg/kg/day
LOAEL [15, 33]: 1000 mg/kg/day
LEL [15, 38]: 100 mg/kg/day
NEL [15, 38]: < 100 mg/kg/day
NOAEL [15, 38]: 300 mg/kg/day
LOAEL ([16]; systemic / in life observation / clinical signs / body surface staining + systemic / in life observation / clinical signs / urinary …): 414 mg/kg/day
LEL [16, 39]: 39 mg/kg/day
NEL [16, 39]: < 39 mg/kg/day
NOAEL ([16]; systemic / organ weight / spleen / relative to body weight + systemic / in life observation / clinical signs / body surface staining + …): 134 mg/kg/day
LEL [17, 37]: 395 mg/kg/day
LOAEL [17, 37]: 395 mg/kg/day
NEL [17, 40]: 128 mg/kg/day
NOAEL [17, 40]: 128 mg/kg/day

COP(=O)(OC)C(O)C(Cl)(Cl)Cl (stereo not drawn) [Trichlorfon]
LEL [18, 41]: 129 mg/kg/day
LOAEL [18, 41]: 129 mg/kg/day
NEL [18, 41]: < 129 mg/kg/day
NOAEL [18, 41]: < 129 mg/kg/day
LEL [18, 42]: 129 mg/kg/day
LOAEL [18, 42]: 129 mg/kg/day
NEL [18, 42]: < 129 mg/kg/day
NOAEL [18, 42]: < 129 mg/kg/day
LEL [19, 41]: 45 mg/kg/day
LOAEL [19, 41]: 45 mg/kg/day
NEL [19, 41]: < 45 mg/kg/day
NOAEL [19, 41]: < 45 mg/kg/day
LEL [19, 43]: 45 mg/kg/day
NEL [19, 43]: < 45 mg/kg/day
LOAEL [19, 44]: > 405 mg/kg/day
NOAEL [19, 44]: ≥ 405 mg/kg/day
LEL [20, 45]: 35 mg/kg/day
LOAEL [20, 45]: 35 mg/kg/day
NEL [20, 45]: 10 mg/kg/day
NOAEL [20, 45]: 10 mg/kg/day
LEL [20, 46]: 110 mg/kg/day
LOAEL [20, 46]: 110 mg/kg/day
NEL [20, 46]: 35 mg/kg/day
NOAEL [20, 46]: 35 mg/kg/day
LEL ([20]; group: maternal, reproductive / reproductive performance / aborted / aborted + systemic / in life observation / clinical signs / altered breathing rate + …): 35 mg/kg/day
LOAEL ([20]; group: maternal, reproductive / reproductive performance / resorptions / resorptions): 110 mg/kg/day
NEL [20, 47]: 10 mg/kg/day
NOAEL [20, 47]: 35 mg/kg/day
LEL [21, 48]: 15 mg/kg/day
LOAEL [21, 48]: 15 mg/kg/day
NEL [21, 48]: < 15 mg/kg/day
NOAEL [21, 48]: < 15 mg/kg/day
LEL [21, 49]: 175 mg/kg/day
LOAEL [21, 49]: 175 mg/kg/day
NEL [21, 49]: 50 mg/kg/day
NOAEL [21, 49]: 50 mg/kg/day
LEL [21, 50]: 175 mg/kg/day
LOAEL [21, 50]: > 175 mg/kg/day
NEL [21, 50]: 50 mg/kg/day
NOAEL [21, 50]: ≥ 175 mg/kg/day
LOAEL [21, 51]: 175 mg/kg/day
NEL [21, 51]: 50 mg/kg/day
NOAEL [21, 51]: 50 mg/kg/day
LEL ([21]; group: reproductive, reproductive / offspring survival early / birth index / birth index + reproductive / offspring survival early / litter size / litter size): 175 mg/kg/day
LEL [22, 52]: 15 mg/kg/day
LOAEL [22, 52]: 15 mg/kg/day
NEL [22, 52]: 5 mg/kg/day
NOAEL [22, 52]: 5 mg/kg/day
LEL [22, 53]: 15 mg/kg/day
LOAEL [22, 53]: 15 mg/kg/day
NEL [22, 53]: 5 mg/kg/day
NOAEL [22, 53]: 5 mg/kg/day
